Results as given in patent US10017535B2, “Amphiphilic compounds with neuroprotective properties” (USTAV ORGANICKE CHEMIE A BIOCHEMIE AV CR, v.v.i., priority 2014, dated 2018).

Key:
[1] = biological target: T1, NR1-1a/NR2B NMDA receptor (Rattus norvegicus, UniProt P35439+Q00960); test: Patch-clamp inhibition of glutamate-evoked currents at recombinant NMDA receptors in transfected HEK293 cells; assay type: cell-based; settings: for IC50: calculated from relative steroid-induced inhibition, Hill's coefficient 1.2, read-out: IC50
T1 construct: expressed in transfected cells; host or cells: HEK293 cells (ATCC CRL1573)
T1 sequence (Q00960 27-1482, other chains not shown): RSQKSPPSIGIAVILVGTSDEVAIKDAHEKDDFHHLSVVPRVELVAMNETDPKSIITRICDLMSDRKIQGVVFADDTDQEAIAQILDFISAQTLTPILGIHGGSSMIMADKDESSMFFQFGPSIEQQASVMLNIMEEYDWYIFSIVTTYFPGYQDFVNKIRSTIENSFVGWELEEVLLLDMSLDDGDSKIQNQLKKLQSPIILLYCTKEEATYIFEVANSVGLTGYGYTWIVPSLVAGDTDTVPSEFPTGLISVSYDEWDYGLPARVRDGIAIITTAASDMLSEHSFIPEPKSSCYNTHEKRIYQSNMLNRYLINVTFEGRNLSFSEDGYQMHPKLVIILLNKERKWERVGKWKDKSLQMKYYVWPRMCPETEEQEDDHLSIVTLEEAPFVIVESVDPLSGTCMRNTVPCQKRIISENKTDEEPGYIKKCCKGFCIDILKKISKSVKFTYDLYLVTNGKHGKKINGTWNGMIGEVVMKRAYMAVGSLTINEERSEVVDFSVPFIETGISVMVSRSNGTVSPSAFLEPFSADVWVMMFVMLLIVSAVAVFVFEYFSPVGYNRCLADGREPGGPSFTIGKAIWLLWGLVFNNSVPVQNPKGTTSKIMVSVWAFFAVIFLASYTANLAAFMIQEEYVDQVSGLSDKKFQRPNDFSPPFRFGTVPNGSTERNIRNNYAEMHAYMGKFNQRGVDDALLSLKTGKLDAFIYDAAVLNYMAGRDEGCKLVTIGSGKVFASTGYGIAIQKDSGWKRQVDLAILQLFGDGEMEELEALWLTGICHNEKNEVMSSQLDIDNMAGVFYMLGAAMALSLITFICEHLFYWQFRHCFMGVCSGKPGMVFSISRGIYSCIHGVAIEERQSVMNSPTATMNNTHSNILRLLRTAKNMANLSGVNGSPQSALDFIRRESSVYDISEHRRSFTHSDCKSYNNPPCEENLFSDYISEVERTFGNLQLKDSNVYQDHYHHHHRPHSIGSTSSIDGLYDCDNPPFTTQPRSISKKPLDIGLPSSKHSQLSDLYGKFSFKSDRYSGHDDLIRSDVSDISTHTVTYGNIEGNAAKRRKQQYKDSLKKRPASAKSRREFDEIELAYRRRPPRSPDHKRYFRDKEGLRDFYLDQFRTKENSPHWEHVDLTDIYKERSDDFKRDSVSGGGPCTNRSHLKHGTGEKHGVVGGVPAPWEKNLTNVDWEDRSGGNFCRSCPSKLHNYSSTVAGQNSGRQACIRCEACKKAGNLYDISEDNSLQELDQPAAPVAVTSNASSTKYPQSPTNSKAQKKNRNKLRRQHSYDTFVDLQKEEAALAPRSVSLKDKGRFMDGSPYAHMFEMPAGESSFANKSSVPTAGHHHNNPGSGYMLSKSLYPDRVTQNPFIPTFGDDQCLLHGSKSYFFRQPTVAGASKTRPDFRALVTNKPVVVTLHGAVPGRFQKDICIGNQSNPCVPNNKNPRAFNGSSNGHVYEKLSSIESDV
In short: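 HEK293 cells co-transfected with rat NR1-1a/NR2B plus GFP were whole-cell patch-clamped 16-40 h post-transfection at −60 mV. Currents were evoked by 1 mmol·l^−1 glutamate with 10 μmol·l^−1 glycine in ECS pH 7.3, and steroid was co-applied in DMSO via fast perfusion. IC50 came from relative inhibition.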

[2] = test system: laboratory mice, strain CD-1; test: Passive avoidance test (aversive motivated memory); assay type: in vivo; also: key: −: the desired effect was not observed; −/+: the desired effect was insufficient; +: the desired effect was observed
Description: (§1) In the Experimental Part 1 were used adults (30-35 g) male laboratory mice, strain CD-1 from Velaz facility, Czech Republic. Mice were housed in plastic boxes with a 12-hour light cycle (lights on at 7:00 pm). Mice had free access to food and water.
Aversive motivated memory test was evaluated on the basis of latency input into the preferred, but unpleasant sensation associated with delivery device.

[3] = test system: NMDA lesion of the dorsal hippocampus in rats; test: Active allothetic place avoidance (AAPA) after bilateral excitotoxic NMDA lesion of dorsal hippocampus; assay type: in vivo, rat Long-Evans strain; settings: for NMDA lession Improvement in Cognition in AAPA after NMDA Lession: 1 mg/kg after NMDA lesion; as to NMDA lession Improvement in Cognition in AAPA after NMDA Lession: key: −: the desired effect was not observed; −/+: the desired effect was insufficient; +: the desired effect was observed
Description: In the Experimental Part 2 were used adult (3 months old, 300-400 g) male rat Long-Evans strain. The animals come from herds Institute of Physiology ASCR. The rats were housed in clear plastic boxes with the same light cycle as in mice. Animals had free access to food and water. All experiments were carried out in the light of clay. All experiments were carried out in accordance with the Law on protection of animals against cruelty.
The anesthetized rats were used in operations isoflurane (3.5%, Baxter). To recall excitotoxic lesion of the dorsal hippocampus was applied 0.05 mol·l^−1 solution of NMDA (Sigma-Aldrich) in 0.4 mol·l^−1 phosphate buffer solution prepared by mixing 356 g Na2HPO4.12H2O (Mw358.14) in 4.2 l of distilled water and a solution of 62.4 g NaHPO4. 2H2O (Mw156.01) in 0.8 l of distilled water. The pH of the resulting solution of NMDA was adjusted to 7.4 with NaOH.
In this experiment, the neuroprotective effects were evaluated for amphiphilic steroid compounds. The procedure was performed according to Neuropharmacology 61, 61-68 (2011)
The rats were randomly divided into eleven groups. The control group included operated animals, which were injected by phosphate buffer […] into the hippocampus. In the second group, the animals had NMDA lesions of the hippocampus. The animals of the third group were applied clinically used NMDA antagonist memantine at a dose of 5 mg/kg after NMDA lesion. The other groups were administered the compounds at a dose of 1 mg/kg.
The test was performed in rotating arena with prohibited sector in the form of a circular sector (60°). If the rat entered the sector, its limbs received weak electrical impulse.
Test memory and spatial cognition in rats using AAPA was evaluated over four sessions, which are in healthy rats sufficient to achieve asymptotic level (Behay. Brain. Res. 189, 139-144 (2008)). To evaluate memory and spatial cognition was used data from the fourth session, and the number of entries into the forbidden sector and the maximum avoidance sector. […] After the experiment, the localization of the lesion was histologically verified.
Data were analyzed using the non parametric test of Maim Whitney criteria using the GraphPad. The difference was considered significant for p<0.05, for a non-significant tendency then for 0.05<p<0.075.

[4] = test system: laboratory mice, strain CD-1; assay type: in vivo; settings: intraperitoneally, 1 mg/kg; also: key: −: the desired effect was not observed; −/+: the desired effect was insufficient; +: the desired effect was observed
Description: as §1
Thus there were prepared solutions of the four steroids for application rates of 0.1, 1, 10 and 100 mg/kg.
Laboratory mouse was chosen as a model organism for this experiment. The following experiments were performed as described in Front Behay. Neurosci.
The purpose of the primary behavioral testing was quickly determined the effect of compounds on CNS dependent functions and any signs of toxicity. A simplified modification Irwin test was selected with respect to the behavioral profile of NMDA receptor antagonists. Mice were tested individually. The study drug was administered intraperitoneally (Table 3) at a dose of 1 mg/kg. The control group consisted of individuals that received the CDX solution or saline.

[5] = 1 mg/kg after surgery, vs NMDA group

Compound: C[C@@]12CCCCC1[C@@H]1CC[C@@H]3C[C@H](OC(=O)[C@@H](N)CCC(=O)O)CC[C@]3(C)[C@H]1CC2 (stereo partly drawn) [Compound 106, (4S)-4-Amino-5-(((2R,4aS,4bS,6aS,10bS,12aR)-4a,6a-dimethyloctadekahydrochrysen-2-yl)oxy)-5-oxopentanoic acid]
- inhibition at 10 µM ([1]; HEK293, steroid concentration 10 μmol·l^−1, 1 mmol·l^−1 glutamate, −60 mV, read-out: Mean % change ± SD): 48.7 ± 6.3%
- IC50 [1]: 10.6 µM
- Passive Avoidance Test No Memory Violation [2]: +
- NMDA lession Improvement in Cognition in AAPA after NMDA Lession [3]: −
- Behavioural Test No Evidence of Toxicity [4]: +

Compound: C[C@@]12CCC[C@H]1[C@@H]1CC[C@@H]3C[C@H](OC(=O)[C@@H](N)CCC(=O)O)CC[C@]3(C)[C@H]1CC2 [Compound 130, (4S)-4-Amino-5-(((3R,5R,8S,9S,10S,13S,14S)-10,13-dimethylhexadecahydro-1H-cyclopenta[a]phenanthren-3-yl)oxy)-5-oxopentanoic acid]
- inhibition at 1 µM ([1]; HEK293, read-out: Mean % change ± SD): 36.7 ± 7%
- IC50 [1]: 1.6 µM
- Passive Avoidance Test No Memory Violation [2]: +
- maximum time avoiding the sector, fourth session of AAPA [3, 5]: significantly increased
- number of entries into the forbidden sector, fourth session of AAPA [3, 5]: significant reduction
- Behavioural Test No Evidence of Toxicity [4]: +

Compound: Pyridinium (3S,3aS,5bR,7aR,9R,11aS,11bS,13aR)-3,11a-dimethylhexadecahydro-1H,3H-naphtho[2′,1′:4,5]indeno[1,7a-c]furan-9-yl 9-sulfate [Compound 124]
- IC50 [1]: 51 µM
- Mean % change ± SD ([1]; steroid concentration 100 μmol·l^−1, 1 mmol·l^−1 glutamate, −60 mV): 69.1 ± 4.0%
- Passive Avoidance Test No Memory Violation [2]: −/+
- NMDA lession Improvement in Cognition in AAPA after NMDA Lession [3]: −
- Behavioural Test No Evidence of Toxicity [4]: +
